Experimental data published in patent publication US9517993B2, “Antagonists of the toll-like receptor 1/2 complex” (THE REGENTS OF THE UNIVERSITY OF COLORADO, a body corporate, priority 2012, dated 2016).

What was measured:
TLR1/2 [1] = target: T1, TLR1/2 (Mus musculus, UniProt Q9EPQ1+Q9QUN7); assay: In vitro TLR1/2 inhibition assay (nitric oxide, Pam3CSK4-activated RAW 264.7 macrophages); assay type: cell-based; conditions: RAW 264.7 NO assay; for TLR1/2 inhibitory activity (in words, SAR and specificity): Pam3CSK4
T1 construct: production of NO in RAW 264.7 macrophage cells; endogenous in cells; host or cells: RAW 264.7
T1 sequence (Q9EPQ1 26-795): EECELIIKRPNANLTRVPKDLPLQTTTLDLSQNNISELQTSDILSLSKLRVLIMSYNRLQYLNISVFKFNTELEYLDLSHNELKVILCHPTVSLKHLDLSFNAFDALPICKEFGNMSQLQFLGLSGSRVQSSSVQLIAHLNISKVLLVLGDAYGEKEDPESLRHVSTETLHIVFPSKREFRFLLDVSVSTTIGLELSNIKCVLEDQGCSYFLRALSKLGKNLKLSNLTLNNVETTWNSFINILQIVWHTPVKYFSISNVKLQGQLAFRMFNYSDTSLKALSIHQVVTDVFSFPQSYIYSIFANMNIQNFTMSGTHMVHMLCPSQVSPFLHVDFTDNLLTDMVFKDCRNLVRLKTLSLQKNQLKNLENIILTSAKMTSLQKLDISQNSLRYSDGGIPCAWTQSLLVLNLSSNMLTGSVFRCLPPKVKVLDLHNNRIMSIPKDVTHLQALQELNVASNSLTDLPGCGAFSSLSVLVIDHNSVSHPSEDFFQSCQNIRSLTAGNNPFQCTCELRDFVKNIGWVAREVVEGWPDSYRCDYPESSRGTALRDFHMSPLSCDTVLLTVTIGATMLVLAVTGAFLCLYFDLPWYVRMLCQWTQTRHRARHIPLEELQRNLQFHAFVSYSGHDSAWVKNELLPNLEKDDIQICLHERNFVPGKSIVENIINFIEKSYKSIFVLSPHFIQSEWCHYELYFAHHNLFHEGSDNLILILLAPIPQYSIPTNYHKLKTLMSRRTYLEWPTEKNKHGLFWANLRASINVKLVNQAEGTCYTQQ
T1 sequence (Q9QUN7 25-784): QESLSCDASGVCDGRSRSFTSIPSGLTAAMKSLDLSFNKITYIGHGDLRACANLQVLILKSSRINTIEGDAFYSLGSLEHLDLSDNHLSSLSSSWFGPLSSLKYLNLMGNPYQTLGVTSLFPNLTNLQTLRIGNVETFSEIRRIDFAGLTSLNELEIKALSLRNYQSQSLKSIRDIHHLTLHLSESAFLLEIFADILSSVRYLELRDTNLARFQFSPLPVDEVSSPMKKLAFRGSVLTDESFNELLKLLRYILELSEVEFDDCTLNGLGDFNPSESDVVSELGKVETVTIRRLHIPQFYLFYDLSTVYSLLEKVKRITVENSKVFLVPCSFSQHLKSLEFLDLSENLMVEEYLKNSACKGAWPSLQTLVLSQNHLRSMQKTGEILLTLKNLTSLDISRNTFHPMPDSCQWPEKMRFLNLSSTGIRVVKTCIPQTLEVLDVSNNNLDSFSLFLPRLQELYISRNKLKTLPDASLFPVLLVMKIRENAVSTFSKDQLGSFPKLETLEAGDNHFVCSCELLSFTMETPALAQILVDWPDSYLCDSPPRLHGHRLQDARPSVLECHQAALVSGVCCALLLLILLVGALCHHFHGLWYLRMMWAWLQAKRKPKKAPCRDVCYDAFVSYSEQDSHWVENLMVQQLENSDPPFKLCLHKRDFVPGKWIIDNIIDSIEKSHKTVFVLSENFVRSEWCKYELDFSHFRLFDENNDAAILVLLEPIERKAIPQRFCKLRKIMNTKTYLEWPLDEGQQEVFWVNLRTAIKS
Protocol: To identify novel TLR1/2 complex inhibitors, a cell-based assay was employed to screen the NCI-2 diversity small-molecule library. This 1,363 compound library was chosen from the larger NCI library, which has more than 140,000 compounds, on the basis of availability, purity, and other pharmacological features, such as relative rigidity, number of rotatable bonds and chiral centers, the absence of obvious leaving groups and weakly bounded heteroatoms, etc. Screening was performed in a 96-well plate format using a previously established high-throughput nitric oxide (NO) assay. See e.g. Cheng et al., Small molecule inhibitors of the TLR3/dsRNA complex, J. Am. Chem. Soc. (2011), 133:3764-67, which is herein incorporated by reference in its entirety. Briefly, synthetic triacylated lipoprotein Pam3CSK4 was employed to selectively activate TLR1/2 signaling, resulting in the expression of inducible nitric oxide synthase (iNOS) and the production of NO in RAW 264.7 macrophage cells. NO levels were monitored as an indicator of Pam3CSK4-induced TLR1/2 activation to evaluate the compound's inhibitory activity.
RAW 264.7 (Mouse leukaemic monocyte macrophage cell line) cells were grown in RPMI 1640 medium, supplemented with 10% FBS, penicillin (100 U/mL) and streptomycin ([…]). RAW cells were then planted in 96-well plates at 80,000 cells per well and grown for 24 h in the media descried previously at 37° C. in a 5% CO2 humidified incubator. After 24 h, non-adherent cells and media were removed and replaced with fresh unsupplemented RPMI 1640 medium. The adherent macrophages were treated with Pam3CSK4 (CAS No. 112208-00-1; a synthetic triacylated lipopeptide (LP) that mimics the acylated amino terminus of bacterial LPs) (200 ng/mL) (Invivogen, USA), an agonist of TLR1/2, and then added different concentrates of potential inhibitor. Two rows were only treated with Pam3CSK4 as control. Plates were then incubated for an additional 24 h. Following incubation 100 μL of media was removed and added to flat black 96-well microfluor plates (Thermo Scientific, MA, USA). To each well, 10 μL of 2,3-diaminonaphthalene (0.05 mg/mL in 0.62 M aqueous HCl solution) was added and incubated for 15 min in the dark. The reaction was quenched by addition of 5 μL of a 3 M aqueous NaOH solution and the plate was read on Beckman Coulter DTX880 reader (Beckman Coulter, Calif., USA) with excitation at 365 nm and emission at 450 nm. The nitrite (a stable metabolite of nitric oxide) concentration was determined from a nitrite standard curve. The inhibition rate (%) of NO release was determined using the following formula: Inhibition (%)=[Pam3CSK4(OD450) […]]/[Pam3CSK4 (OD450)−Control (OD450)]×100. The IC50 values for both inhibition and cytotoxicity were determined graphically using software Origin v7.5.

TLR1/2 [2] = target: T2, TLR1/2 (Homo sapiens, UniProt O60603+Q15399); assay: Fluorescence anisotropy competition assay with rhodamine-labeled Pam3CSK4; assay type: binding; design: His; TLR2 made in house; host or cells: baculovirus; Sf-9 for virus, High Five insect cells for expression (TLR2); conditions: negative control
Description: The TLR2 protein was expressed in the baculovirus insect cell expression system using the methods described by Kuroki et al. See Iwaki et al., The extracellular Toll-like receptor 2 domain directly binds peptidoglycan derived from Staphylococcus aureus, J. Biol Chem (2002), 277:24315-20, which is herein incorporated by reference in its entirety. The activity of the TLR2 protein was validated by the fluorescence anisotropy assay. […] Good fitting (R2>0.98) inferred that compound 17 and Pam3CSK4 compete for the same binding site on the TLR1/2 dimeric surface.
In 500 μL Tris buffer (pH=7.2) add 10 μL, (1 ng/mL) rhodamine-labeled Pam3CSK4, test the fluorescence anisotropy at excitation of 549 nm and emission of 566 nm (Horiba Fluorolog 3). And 5 μL (20 μM) TLR1 (R &D) and 5 μL, (20 μM) TLR2 was added into the above buffer, then retest the anisotropy. Following, compound 17 or compound 6 was added in the buffer from the concentration of 0 to 6 μM, and the fluorescence anisotropy was tested in the corresponding concentration.
Fluorescence polarization experiments were performed at 25° C. using a Horiba Fluorolog-3 fluorometer. For direct binding measurements, serial dilutions of TLR1 (R&D, MN) and TLR2 were made in Tris buffer (pH=7.2), and an aliquot (10 μL) of 1 ng/mL rhodamine labeled Pam3CSK4, was added to a total volume of 500 μL. The competition binding solution was incubated for 30 minutes at 25° C. Serial dilutions of compound 17 or compound 6 were incubated with 20 μM TLR1, 20 μM TLR2 and rhodamine-labeled Pam3CSK4 for 30 min at room temperature.
Regression analysis was carried out using Origin 7.5 (OriginLab) ligand binding macro module. […] Equation (1): y=min+(max−min)/(1+10^x-logIC50)(total binding, x=log concentration of and rhodamine-labeled Pam3CSK4, min=nonspecific binding, max=maximum binding in absence of ligand). Equation (2): Ki=IC50/(1+[L]/Kd) ([L]=concentration of rhodamine-labeled Pam3CSK4).
Target sequence in this assay (Q15399 25-580 limits assumed): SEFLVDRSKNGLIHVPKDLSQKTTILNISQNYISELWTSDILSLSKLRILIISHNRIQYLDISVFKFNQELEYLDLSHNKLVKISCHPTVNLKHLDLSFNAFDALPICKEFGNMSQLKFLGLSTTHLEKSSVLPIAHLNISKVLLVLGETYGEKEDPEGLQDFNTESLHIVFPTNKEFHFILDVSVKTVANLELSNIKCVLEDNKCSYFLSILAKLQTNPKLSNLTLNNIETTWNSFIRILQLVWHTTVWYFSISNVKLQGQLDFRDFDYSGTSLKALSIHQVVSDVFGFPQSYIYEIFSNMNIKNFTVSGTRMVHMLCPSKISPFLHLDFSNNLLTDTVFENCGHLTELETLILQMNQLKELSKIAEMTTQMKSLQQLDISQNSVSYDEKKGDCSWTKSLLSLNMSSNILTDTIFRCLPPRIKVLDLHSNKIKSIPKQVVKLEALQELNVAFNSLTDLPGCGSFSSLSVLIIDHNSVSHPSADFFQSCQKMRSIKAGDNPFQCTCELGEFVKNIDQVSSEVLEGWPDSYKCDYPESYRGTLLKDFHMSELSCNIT
Target sequence in this assay (O60603 21-588 limits assumed): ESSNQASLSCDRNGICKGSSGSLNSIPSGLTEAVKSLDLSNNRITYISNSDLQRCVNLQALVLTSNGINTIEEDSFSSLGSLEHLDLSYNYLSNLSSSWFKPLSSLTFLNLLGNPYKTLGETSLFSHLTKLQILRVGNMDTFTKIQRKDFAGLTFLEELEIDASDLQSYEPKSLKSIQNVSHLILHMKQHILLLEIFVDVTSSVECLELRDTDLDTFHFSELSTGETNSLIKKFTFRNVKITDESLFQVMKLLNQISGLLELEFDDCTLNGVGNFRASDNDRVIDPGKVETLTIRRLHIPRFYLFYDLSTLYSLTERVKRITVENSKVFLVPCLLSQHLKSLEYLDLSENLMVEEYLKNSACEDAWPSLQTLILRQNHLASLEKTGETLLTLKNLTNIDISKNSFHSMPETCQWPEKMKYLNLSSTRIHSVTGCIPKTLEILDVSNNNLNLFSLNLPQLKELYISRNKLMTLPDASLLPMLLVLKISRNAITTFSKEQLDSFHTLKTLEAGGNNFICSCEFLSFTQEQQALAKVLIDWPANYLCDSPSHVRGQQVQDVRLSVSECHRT

TLR1/2 [3] = target: T2, TLR1/2; conditions: read-out: known affinity (Kd); cited from earlier work
Target sequence in this assay (Q15399 25-786): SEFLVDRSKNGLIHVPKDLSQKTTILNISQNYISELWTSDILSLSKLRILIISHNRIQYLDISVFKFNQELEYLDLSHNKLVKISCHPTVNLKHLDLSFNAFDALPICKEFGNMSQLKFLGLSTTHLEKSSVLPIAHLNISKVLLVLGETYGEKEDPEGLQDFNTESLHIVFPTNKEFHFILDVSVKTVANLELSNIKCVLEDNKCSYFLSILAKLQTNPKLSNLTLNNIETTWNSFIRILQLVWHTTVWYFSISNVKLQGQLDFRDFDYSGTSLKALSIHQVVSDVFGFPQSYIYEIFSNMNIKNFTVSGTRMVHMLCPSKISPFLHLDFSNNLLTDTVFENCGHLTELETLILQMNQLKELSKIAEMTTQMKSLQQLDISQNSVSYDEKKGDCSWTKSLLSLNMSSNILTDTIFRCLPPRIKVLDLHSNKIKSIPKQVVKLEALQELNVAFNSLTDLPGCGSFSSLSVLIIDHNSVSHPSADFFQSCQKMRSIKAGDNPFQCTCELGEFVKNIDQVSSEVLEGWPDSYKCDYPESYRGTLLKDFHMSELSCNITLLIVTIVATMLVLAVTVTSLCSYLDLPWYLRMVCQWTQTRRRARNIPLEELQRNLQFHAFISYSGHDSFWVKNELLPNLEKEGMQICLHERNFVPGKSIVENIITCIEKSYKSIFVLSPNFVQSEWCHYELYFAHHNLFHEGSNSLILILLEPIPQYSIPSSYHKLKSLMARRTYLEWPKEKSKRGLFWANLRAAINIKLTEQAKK
Target sequence in this assay (O60603 21-784): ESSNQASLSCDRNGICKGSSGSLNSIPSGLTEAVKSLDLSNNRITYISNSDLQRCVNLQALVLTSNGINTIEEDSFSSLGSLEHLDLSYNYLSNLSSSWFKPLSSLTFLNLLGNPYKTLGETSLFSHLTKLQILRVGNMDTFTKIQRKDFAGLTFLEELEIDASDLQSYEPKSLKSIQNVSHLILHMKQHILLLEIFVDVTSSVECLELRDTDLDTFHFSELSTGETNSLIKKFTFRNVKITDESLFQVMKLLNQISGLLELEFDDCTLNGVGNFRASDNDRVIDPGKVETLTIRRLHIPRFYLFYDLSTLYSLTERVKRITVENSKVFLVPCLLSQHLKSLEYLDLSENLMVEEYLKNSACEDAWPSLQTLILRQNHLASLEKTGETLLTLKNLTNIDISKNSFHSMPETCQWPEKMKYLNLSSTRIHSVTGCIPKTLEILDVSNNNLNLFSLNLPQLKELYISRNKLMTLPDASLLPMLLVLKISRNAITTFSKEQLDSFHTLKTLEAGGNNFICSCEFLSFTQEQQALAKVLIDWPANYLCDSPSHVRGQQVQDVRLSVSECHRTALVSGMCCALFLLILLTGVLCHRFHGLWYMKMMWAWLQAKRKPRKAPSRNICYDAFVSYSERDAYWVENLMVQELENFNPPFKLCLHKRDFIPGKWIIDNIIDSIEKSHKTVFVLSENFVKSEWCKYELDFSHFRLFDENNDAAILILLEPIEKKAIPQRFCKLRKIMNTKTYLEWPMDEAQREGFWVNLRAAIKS

Molecule	TLR1/2 inhibitory activity (in words, SAR and specificity) (TLR1/2 [1])	further results
COc1cc2cccc(O)c(=O)c2c(O)c1O [compound 4, 3,4,6-trihydroxy-2-methoxy-5H-benzo[7]annulen-5-one]	no significant influence to its activity	–
COc1cc2cccc(OC)c(=O)c2c(OC)c1OC [compound 6, 2,3,4,6-tetramethoxy-5H-benzo[7]annulen-5-one]	significant decrease of inhibition	IC50 (TLR1/2 [2]): > 40000 nM
COc1cc2cc(C(=O)O)cc(O)c(=O)c2c(O)c1O [compound 10, 3,4,6-trihydroxy-2-methoxy-5-oxo-5H-benzo[7]annulene-8-carboxylic acid]	–	decrease of TLR1/2 inhibitory activity versus comparator (TLR1/2 [1]; SAR comparison): six-fold
COC(=O)c1cc(O)c(=O)c2c(O)c(O)c(OC)cc2c1 [compound 11, Methyl 3,4,6-trihydroxy-2-methoxy-5-oxo-5H-benzo[7]annulene-8-carboxylate]	returned the activity to the NCI35676 level	–
Pam3CSK4	–	Kd (TLR1/2 [3]): 1.2 nM

Now from value to molecule, other results behind:

TLR1/2 inhibitory activity (in words, SAR and specificity) (TLR1/2 [1])	Molecule	further results
activity slightly decreased	CCCCCCNC(=O)c1cc(O)c(=O)c2c(O)c(O)c(OC)cc2c1 [compound 22, N-hexyl-3,4,6-trihydroxy-2-methoxy-5-oxo-5H-benzo[7]annulene-8-carboxamide]	–
no significant change in activity	COc1cc2cc(CO)cc(O)c(=O)c2c(O)c1O [compound 23, 3,4,6-trihydroxy-8-(hydroxymethyl)-2-methoxy-5H-benzo[7]annulen-5-one]	–
no significant change in activity	COc1cc2cc(C(=O)Nc3ccccc3C)cc(O)c(=O)c2c(O)c1O [compound 24, 3,4,6-trihydroxy-2-methoxy-5-oxo-N-o-tolyl-5H-benzo[7]annulene-8-carboxamide]	–
